Source: patent publication US6482851B1, “Synthesis of dysidiolide and uses thereof” (Sloan-Kettering Institute for Cancer Research, priority 1998, dated 2002)

What was measured:
Cdk6 = test: in vitro kinase assay of Cdk6 immunoprecipitated from treated TSU-Pr1 cells; type: cell-based, human; conditions: 3.33 μM, TSU-Pr1, as early as 3 hours in drug
Protocol: (§1) TSU-Pr1 cells were treated for 24 hours with either DMSO or 3.33 μM dysidiolide. Cells were pulse-labeled for 30 min with bromodeoxyuridine (BrdU) and analyzed by FACS. The R@ window contains BRDU-positive, S-phase cells. Consistent with the proposed inhibitory effect of dysidiolide on the positive cell cycle regulator Cdc25. the drug inhibited the activity of cyclin-dependent kinases (Cdk). Cdk4, 6 and 2 were immunoprecipitated from DMSO- or drug-treated TSU-Pr1 cell cultures. Activity was examined in vitro kinase assays. The activity of the three Cdks was inhibited in drug-treated cells, as early as 3 hours in drug.
(§2) In vitro kinase assays of Cdk. TSU-Pr1 cells were treated with 3.33 μM dysidiolide for 0-24 hours. Samples were collected at various times and the activity of Cdk4, 6 and 2 was determined. Cdks were immunoprecipitated with specific antibodies and incubated with radiolabeled ATP plus either histH1 (for Cdk2) or GST-Rb (for Cdk4 and 6). Reactions were separated on SDS-polyacrylamide gels and the amount of phosphorylated product was determined by radiometric analysis.

Cdk2 = test: in vitro kinase assay of Cdk2 immunoprecipitated from treated TSU-Pr1 cells; type: cell-based, human; conditions: 3.33 μM, TSU-Pr1, as early as 3 hours in drug
Protocol: as §1, §2

Cdc25 C = test: steady-state levels of Cdc25 C in MCF7 cell lysates; type: cell-based, human
Protocol: Effect of dysidiolide on the activity of Cdk2 and on the steady-state levels of Cdc25A and Cdc25C. MCF7 cells were treated for 2 or 4 hr with 0, 2 or 10 μM dysidiolide. A) The kinase activity of Cdk2 was assayed on immunoprecipitates using histone H1 as exogenous substrate. B) The steady-state levels of Cdc25 A and C were analyzed in total cell lysates with specific antibodies (Santa Cruz Biotechnology's sc097 and sc327 antibodies were used for detection of Cdc25 A and C, respectively).
(§3) (A) Effect of 50 μM dysidiolide on the steady-state levels of Cdc25 A and C, and of other cell cycle regulators in MCF7 cells after a 24 hr treatment.
To further characterize the effects of dysidiolide on cell cycle control, experiments were conducted at the molecular level. As Cdc25s (A, B and C) are positive regulators of cyclin-dependent kinases (Cdk) (reviewed in Draetta and Eckstein, BBA 1332: M53-M63, 1997) inhibition of Cdc25 is expected to result in inhibition of Cdk activity. MCF7 cells were treated with 2 or 10 μM dysidiolide or with DMSO (controls) for 2 or 4 hr. Cell extracts were used to measure the steady-state levels of Cdc25 A and C, and Cdk activity. […] However, a decrease in the levels of Cdc25 C (but not on A) was clearly noticeable (FIG. 9B). In the next experiment MCF7 cells were treated for 24 hr with 50 μM dysidiolide or with DMSO (control) for 24 hr. […]

[1] = tested on: p21, p27, cyclin D1 and cyclin E; test: steady-state levels of other cell cycle regulators in MCF7 cells; type: cell-based, human; conditions: 50 μM, 24 hr
Protocol: as §3

[2] = tested on: TSU-Pr1, PC3, DU145 and MCF7 human cancer cell lines; test: viability (Trypan blue exclusion) and FACS sub-G1 of four human cancer cell lines; type: cell-based
Protocol: Effect of dysidiolide on the viability of the human cancer cell lines (A) TSU-Pr1, (B) MCF7, (C) PC3, and (D) DU145. Cultures were untreated or treated with 2, 10 or 50 μM dysidiolide for 24 hr. All cultures received a final DMSO concentration of 0.25%. Cells were harvested by trypsinization and viability was determined by Trypan blue exclusion.
FACS analysis of (A) TSU-Pr1, (B) PC3, (C) DU145, and (D) MCF7, untreated or treated with 2, 10 or 50 μM dysidiolide for 24 hr. All cultures received a final DMSO concentration of 0.25%.
Cells containing fragmented DNA content were detected as the M1 (subG1) region on DNA content plots.
A 20 mM stock solution of dysidiolide was prepared in dimethylsulfoxide (DMSO) and a pilot experiment was carried out to measure the effects of the drug on the viability (Trypan blue exclusion) and flow cytometric parameters of four human cancer cell lines: the prostate lines TSU-Pr1, PC3 and DU145, and the breast line, MCF7. Cultures were treated with 0, 2, 10 and 50 μM dysidiolide for 24 hr. Dysidiolide was cytotoxic to the four lines as evidenced by the loss of Trypan blue exclusion capability and by the appearance of sub-G1 fraction on flow cytometric (FACS) analysis (FIGS. 3 and 4A-D). […] (At 50 μM dysidiolide, the level of cell death was too high in TSU-Pr1 cells to fit a valid histogram (FIG. 5A)). […]

[3] = target: T1, human cdc25A protein phosphatase (Homo sapiens, UniProt P30304); conditions: cited from earlier work
T1 sequence (P30304 1-524): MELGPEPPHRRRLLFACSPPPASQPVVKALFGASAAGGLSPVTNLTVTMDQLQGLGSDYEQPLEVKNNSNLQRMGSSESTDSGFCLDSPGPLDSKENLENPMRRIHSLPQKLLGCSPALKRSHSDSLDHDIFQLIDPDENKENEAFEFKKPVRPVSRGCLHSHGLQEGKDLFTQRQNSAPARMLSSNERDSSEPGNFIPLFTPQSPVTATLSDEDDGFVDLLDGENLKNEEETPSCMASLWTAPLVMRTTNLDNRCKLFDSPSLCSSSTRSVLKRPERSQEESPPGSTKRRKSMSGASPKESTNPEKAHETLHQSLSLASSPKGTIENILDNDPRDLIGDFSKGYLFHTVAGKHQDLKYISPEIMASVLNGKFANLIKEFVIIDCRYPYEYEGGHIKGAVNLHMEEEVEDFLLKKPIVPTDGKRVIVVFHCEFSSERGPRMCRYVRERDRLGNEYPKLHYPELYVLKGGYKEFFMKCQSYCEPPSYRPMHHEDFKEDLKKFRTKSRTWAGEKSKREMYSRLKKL

TSU-Pr1 cells = test: BrdU pulse-label FACS of TSU-Pr1 cells; type: cell-based, human; conditions: 3.33 μM, 24 hours
Protocol: as §1

In the case of C=C(C)CCC[C@@]1(C)CCC[C@H]2C1=CC[C@H](C)[C@]2(C)C[C@H](O)C1=CC(=O)O[C@@H]1O (racemic) [dysidiolide], the Cdk6 activity (Cdk6) is reported as “inhibited”, the Cdk2 activity (Cdk2) is reported as “inhibited” and the “levels of Cdc25 C” value (Cdc25 C; 50 μM, 24 hr) is reported as “reduced”. For the same molecule, the “levels of Cdc25 C” value (Cdc25 C; 2 or 10 μM, 2 or 4 hr) was “decrease”, the “levels of p21, p27, cyclin D1 and cyclin E” value [1] was “reduced levels” and the “cytotoxicity (loss of Trypan blue exclusion, sub-G1 fraction)” value ([2]; 2, 10 and 50 μM, 24 hr) was “cytotoxic”. The growth arrest ([2]; 2-50 μM, within 24 hours, four human cancer cell lines) was “growth arrest”, the “inhibition of human cdc25A protein phosphatase” value [3] was “potent inhibitor” and the cell cycle arrest (TSU-Pr1 cells) was “induces G1 arrest”.
